Here are results for 80 molecules from PubChem BioAssay AID743394 (Broad Institute, 2014).

The source made the active and inactive calls.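 The calls were made as follows: active = 40% activation versus positive control reached by fitted dose-response curve at or below highest valid tested dose; inconclusive = poor fit quality, or flat fit with activation between 30% and 70%; inactive = the rest.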

The first test is described as follows: Xi-linked GFP reactivating small molecules – imaging, 68-5-11 mouse fibroblasts, cherry-pick, dose response (AID 743394).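 Also: sensitizer 5-aza-dC present in the wells at 0.5 mM final.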 The following applies: 68-5-11 mouse fibroblast XiGFP reporter, % GFP-positive imaging, 3 d; at 19.5 µM (top of the series).
As to `OCC[n+]1c2ccccc2nc2ccc(N3CCOCC3)cc21`, the activation was 0.02% (inactive).

Staying with this test, now noted: 68-5-11 mouse fibroblast XiGFP reporter, % GFP-positive imaging, 3 d; at 19.5 µM (top of the series); cells co-treated with 5-aza-dC sensitizer; scaled: neutral wells 0, ellipticine wells 100.
Regarding `C[C@H](NC(=O)C[C@H]1CC[C@@H](NC(=O)Cc2ccccn2)[C@@H](CO)O1)c1ccccc1`, the activation is 0.043% (inactive). Take `Cc1onc(-c2c(Cl)cccc2Cl)c1-c1nc2cc(Cl)ccc2c(=O)o1`: the activation is -0.032% (inactive).

For the molecule `O=C(Nc1cccc(C(=O)O)c1)/C(=C\c1ccccc1)NC(=O)c1ccc(Br)o1`, the activation was 0.02% (inactive). Still for that read-out and setting: the value for `O=c1c(Cl)c(Cl)cnn1Cc1nnc(-c2ccccc2Br)o1` was -0.053% (inactive); that for `COc1ccccc1/C=C/C(=O)OCCCN(C)C` was 0.018% (inactive). Still for that read-out and setting: the value for `CCc1ccc(CN(C)C(=O)c2cc(S(=O)(=O)N3CCOCC3)ccc2N2CCCC2)cc1` was -0.007% (inactive). Take `Cc1cccc(NCc2ccc(O)c3ncccc23)c1C`: the activation is 0.288% (inactive).

For the molecule `Cn1c(=O)c(C#N)c(-c2ccc(F)cc2)c2cc(C(=O)c3cc(Cl)cc(Cl)c3O)cnc21`, the activation is -0.044% (inactive). On the same count and under the same terms, the value for `CN1OC[C@@H]2CN(Cc3ccccc3)[C@H](c3cccc(N4CCOCC4)c3)C[C@@H]21` was 0.022% (inactive); that for `O=C(CC1C(=O)Nc2ccccc2N1CC(=O)N1CCCC1)Nc1ccc(Br)cc1` (stereo not given) was -0.001% (inactive); that for `COCCN(C(=O)c1ccc2c(c1)C(=O)N(c1ccccc1Cl)C2=O)c1c(N)n(CC(C)C)c(=O)[nH]c1=O` was 0.738% (inactive). Turning to `COc1ccc2c3c(n(C)c2c1)[C@@H](CO)N(C)CC31CN(C(=O)NC(C)C)C1`, the activation is -0.012% (inactive). The same measure, in the same setting: the value for `COc1ccc(CCn2c(C)cc(C(=O)CN3C(=O)C(=O)N(Cc4ccco4)C3=O)c2C)cc1` was 0.899% (inactive); that for `C[C@@H]1CN([C@@H](C)CO)S(=O)(=O)c2ccc(C#CC3CC3)cc2O[C@H]1CN(C)Cc1ccc(F)cc1` was 0.063% (inactive); that for `CCC(=O)OCCNc1cc(Sc2nc3ccccc3[nH]2)c2nonc2c1[N+](=O)[O-]` was -0.037% (inactive). Still for that read-out and setting: the value for `O=C(CCl)N=c1sccn1Cc1cccc2ccccc12` was -0.053% (inactive); that for `Oc1ccc(Br)cc1C=Nc1ccc2c3c(cccc13)CC2` was 0.056% (inactive). Regarding `CCCCNc1nc2c(-c3ccccc3)nnn2c2ccccc12`, the activation was 0.101% (inactive). Still for that read-out and setting: then `O=C(N/N=C\c1c(O)ccc2ccccc12)c1ccc(S(=O)(=O)N2CCCCC2)cc1`, with 12.4% (inactive); and `O=C(O)c1ccccc1CSc1nc2ccccc2n1Cc1ccccc1C(=O)O`, with 0.715% (inactive). Same read-out and setting: the value for `CCOC(=O)/C(C#N)=C/C=C1/C=CC=CN1C` was 0.071% (inactive); that for `CCN(CC)CCCNC1=C(Cl)C(=O)c2ccccc2C1=O` was -0.032% (inactive). Same read-out and setting: the value for `COc1ccc(NC(=O)Nc2ccc3c(c2)C(=O)N([C@H](C)CO)C[C@H](C)[C@H](CN(C)Cc2ccc4c(c2)OCO4)O3)cc1` was -0.031% (inactive); that for `CCSc1nnc(NC(=O)c2cc(OC)c(OC)c(OC)c2)s1` was 0.316% (inactive); that for `CC(=O)c1ccc2c(c1)OCCOCCOCCOCCOCCO2` was -0.021% (inactive). For the molecule `COc1ccc(-c2nnc(NC(=O)c3ccc(F)cc3)o2)cc1`, the activation was -0.035% (inactive).

`COC(=O)c1cc(NS(=O)(=O)c2ccc(NC(C)=O)cc2)ccc1Cl`: the activation is -0.044% (inactive).

As to `NNc1nc2c(-c3ccc(F)cc3)nnn2c2ccccc12`, the activation was 0.731% (inactive).

Turning to `COc1ccc(S(=O)(=O)N(C)C[C@H]2OCCCC[C@@H](C)Oc3ccc(NC(=O)NC(C)C)cc3C(=O)N([C@@H](C)CO)C[C@H]2C)cc1`, the activation is -0.013% (inactive). The same measure, in the same setting: then `COCCN(C(=S)Nc1cccc(C)c1)C(C)c1cccnc1` (stereo not given), with 0.005% (inactive). As to `CCOC(=O)C1CCN(C(=O)c2ccc(NS(=O)(=O)c3ccc(F)cc3C)cc2)CC1`, the activation is 0.035% (inactive). The same measure, in the same setting: the value for `O=c1c2ccccc2nnn1Cc1ccc2ccccc2c1` was -0.047% (inactive); that for `CCN(CC)c1ccc(N=Cc2ccc([N+](=O)[O-])o2)cc1` was 0.626% (inactive).

As to `O=C(OCc1cc(=O)n2c(n1)sc1ccccc12)c1ccc(O)cc1O`, the activation was 0.076% (inactive).

With `CCCn1c(SCC(=O)NCc2ccc(C)cc2)n[nH]c1=O`, the activation is -0.121% (inactive). The same measure, in the same setting: the value for `CCn1c(Cl)c(C=O)s/c1=N\S(=O)(=O)c1ccccc1` was 1.44% (inactive); that for `Cc1cc(NC(=O)c2ccccc2)n(-c2nc3ccccc3[nH]2)n1` was -0.016% (inactive). Consider `CCOC(=O)Cc1c(C)[nH]n(-c2ccccc2)c1=O`, for which the activation was 0.085% (inactive).

In the case of `O=C(COC(=O)c1cc(=O)[nH]c(=O)[nH]1)Nc1cccc(S(=O)(=O)N2CCCCC2)c1`, the activation was 0.052% (inactive). Still for that read-out and setting: then `C[C@H]1CN([C@@H](C)CO)C(=O)c2ccccc2-c2ccccc2CO[C@H]1CN(C)C(=O)[C@@H](Cc1ccccc1)N(C)C`, with 0% (inactive). Still for that read-out and setting: the value for `Nc1ccccc1Sc1ccc(C(F)(F)F)cc1[N+](=O)[O-]` was 0.953% (inactive). Still for that read-out and setting: then `CC(=O)c1ccc(NS(=O)(=O)c2ccc(N/C=C/C(=O)c3ccc(F)cc3)cc2)cc1`, with 0.351% (inactive).

Turning to `COc1ccc(-c2ccc(C(=O)NCc3cccs3)c3occc23)c(C)c1`, the activation is -0.032% (inactive). As for `COc1ccccc1NC(=S)N(CCCN1CCOCC1)Cc1cccs1`, the activation was -0.076% (inactive). Still for that read-out and setting: the value for `Cn1c(NC(=O)c2ccc(F)cc2)c(-c2ccccn2)c(=O)c2ccccc21` was 0.155% (inactive); that for `Cc1noc(C)c1NC(=O)N[C@H]1CC[C@H](CC(=O)N2CCN(C)CC2)O[C@H]1CO` was 0.116% (inactive). Consider `O=C(Nc1c(Cl)cccc1Cl)Oc1cccc2cccnc12`, for which the activation was -0.037% (inactive). Still for that read-out and setting: then `COc1ccc2c3c([nH]c2c1)[C@@H](CO)N(Cc1ccccc1F)CC31CN(C(=O)C2CCOCC2)C1`, with 0.046% (inactive).

On to `C=CCNC(=O)N[C@@H](Cc1ccccc1)C(=O)OC`, for which the activation is -0.065% (inactive). On the same count and under the same terms, the value for `Cc1cccc(C(=O)NCc2ccc(S(N)(=O)=O)cc2)c1[N+](=O)[O-]` was 0.077% (inactive); that for `CC(Sc1nnc(-c2ccncc2)n1C)C(=O)Nc1ccc(N2CCOCC2)cc1` (stereo not given) was -0.047% (inactive). The same measure, in the same setting: the value for `CCOC(=O)c1ccc(NC(=O)C2(N3C(=O)c4ccccc4C3=O)CCCC2)cc1` was 0.082% (inactive).

In the case of `CNc1ccc([N+](=O)[O-])cc1C(=O)O`, the activation was 0.697% (inactive).

Consider `COCCNC(=O)CSc1nc2scc(-c3ccccc3)c2c(=O)[nH]1`, for which the activation is -0.001% (inactive). On the same count and under the same terms, then `COc1ccc(Nc2nc(N)c(C(=O)c3ccc(F)cc3)s2)cc1`, with 0.551% (inactive). Still for that read-out and setting: the value for `NNC(=O)c1sc(-c2ccccc2)cc1N` was 0.249% (inactive). On the same count and under the same terms, then `CN(C)C(=O)CN1CCN(Cc2nc(CC3CC3)no2)CC1`, with -0.032% (inactive). As to `COC(=O)c1ccc(NC(=O)c2nc(S(=O)(=O)Cc3cccc(C)c3)ncc2Cl)cc1`, the activation is -0.008% (inactive). Consider `Cc1cccn2c(=O)c3cc(C(=O)NCc4ccc(F)cc4)c(=N)n(CCCN4CCOCC4)c3nc12`, for which the activation is 0.061% (inactive). The same measure, in the same setting: then `COc1ccc(-c2nn(-c3ccccc3)cc2C(=O)NC(=S)Nc2cc(Cl)ccc2Cl)cc1`, with 3.67% (inactive); and `CN1c2ccc(-c3ccc(C#N)cc3)cc2[C@@H]2[C@@H](CCN2C(=O)NC2CCCCC2)[C@H]1CO`, with 0.002% (inactive); and `CSc1ccc(CN2C(=O)NC3(CCCCCCC3)C2=O)cc1`, with 0.616% (inactive). The same measure, in the same setting: then `O=C(Nc1c(F)cccc1F)C(c1ccccc1)c1ccccc1`, with 0.013% (inactive); and `CCCOc1ccc(C(=O)Nc2ccc(CN3CCOCC3)cc2)cc1`, with -0.053% (inactive). Still for that read-out and setting: then `CC(C)c1ccc(N2C(=O)/C(=C/N(C)C)SC2=S)cc1`, with 0.088% (inactive); and `CCOC(=O)[C@]12CCC=C1N(Cc1ccccc1)C(=O)[C@H](CC(=O)N1CCSCC1)C2`, with -0.008% (inactive).

`COc1ccc2c3c(n(C)c2c1)[C@H](CO)N(Cc1ccccc1F)CC31CCN(CC2CC2)CC1`: the activation is 0.046% (inactive). The same measure, in the same setting: then `COc1ccccc1N1CCN(C(=O)CN2C(=O)c3cccc4cccc(c34)C2=O)CC1`, with 0.077% (inactive); and `N/C(=N\c1nc(CSc2nc3ccccc3s2)cc(=O)[nH]1)Nc1ccc(F)cc1`, with 8.8% (inactive); and `O=C1C2C3C=CC(CNS(=O)(=O)c4ccccc4[N+](=O)[O-])(O3)C2C(=O)N1c1ccccc1` (stereo not given), with 0.059% (inactive).

Regarding `Nc1cc2c3c(cccc3c1)C(=O)N(CCN1CCCC1)C2=O`, the activation is -0.037% (inactive). Still for that read-out and setting: the value for `CC1CCN(C(=O)Cn2nnc(-c3ccccc3)n2)CC1` was 0.315% (inactive); that for `O=C(O)c1ccc(COc2ccccc2C=C2C(=O)c3ccccc3C2=O)cc1` was 0.163% (inactive). Turning to `COc1cccc(CNC(=O)c2ccc(NC(=O)CC3SC(N4CCCC4)=NC3=O)cc2)c1` (stereo not given), the activation is 0.01% (inactive). Same read-out and setting: the value for `CCc1ccccc1OCC(=O)Nc1ccc(N2CCCC2)cc1C` was 0.109% (inactive).

Turning to `O=C(O)c1cccnc1C(=O)N1CCc2c([nH]c3ccccc23)C1C(F)(F)F` (stereo not given), the activation is 0.006% (inactive).

`O=C(NCc1ccccc1)c1ccccc1Br`: the activation is 0.035% (inactive). Still for that read-out and setting: the value for `CCCCCC[n+]1ccccc1/C=C/c1ccc(N(C)C)cc1` was 6.32% (inactive). On the same count and under the same terms, the value for `O=C(CCn1nc(-c2ccc(Cl)cc2)c2ccccc2c1=O)NN1CCOCC1` was -0.017% (inactive).
